Data: patent publication US20240158446A1, “CYCLIC COMPOUND HAVING SELECTIVE INHIBITORY ACTION ON KRAS OVER HRAS AND NRAS” (CHUGAI SEIYAKU KABUSHIKI KAISHA, priority 2021, published 2024)
Read-outs that look alike come from different tables or passages of the source.

Experiments:
[1] = molecular target: GDP-bound NRAS wild-type protein (Homo sapiens, UniProt P01111); experiment: Binding to NRAS by surface plasmon resonance (SPR), Single Cycle Kinetics; details: for NRAS/KRAS (ratio of KD value for NRAS to KD value for KRAS): SPR, GDP-bound NRAS wild-type protein vs GDP-bound KRAS wild-type protein; for NRAS/KRAS (ratio of KD value with respect to GDP-bound NRAS wild-type protein to KD value with respect to KRAS): SPR KD ratio NRAS/KRAS, class symbols
GDP-bound NRAS wild-type protein, sequence (P01111 whole entry): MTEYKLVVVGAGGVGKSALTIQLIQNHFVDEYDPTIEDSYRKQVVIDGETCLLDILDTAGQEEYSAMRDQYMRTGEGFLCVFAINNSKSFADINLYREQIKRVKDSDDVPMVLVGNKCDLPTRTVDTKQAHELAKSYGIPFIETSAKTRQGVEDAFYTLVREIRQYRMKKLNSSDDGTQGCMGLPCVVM

[2] = molecular target: GDP-bound HRAS wild-type protein (Homo sapiens, UniProt P01112); experiment: Binding to HRAS by surface plasmon resonance (SPR), Single Cycle Kinetics; details: for HRAS/KRAS (ratio of KD value for HRAS to KD value for KRAS): SPR, GDP-bound HRAS wild-type protein vs GDP-bound KRAS wild-type protein; for HRAS/KRAS (ratio of KD value with respect to GDP-bound HRAS wild-type protein to KD value with respect to KRAS): SPR KD ratio HRAS/KRAS, class symbols
GDP-bound HRAS wild-type protein, sequence (P01112 whole entry): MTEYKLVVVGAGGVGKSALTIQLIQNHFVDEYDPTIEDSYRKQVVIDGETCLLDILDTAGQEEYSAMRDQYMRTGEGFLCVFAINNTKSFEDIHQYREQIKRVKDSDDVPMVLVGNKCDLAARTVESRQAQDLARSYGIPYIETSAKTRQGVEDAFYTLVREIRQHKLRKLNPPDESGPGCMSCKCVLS

[3] = system: human lung cancer strain NCI-H441;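 note: cell proliferation inhibition after four days measured by CellTiter-Glo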
[4] = read-out: NCI-H441 IC50, NCI-H441 cells, four days, CellTiter-Glo

SMILES | NRAS/KRAS (ratio of KD value for NRAS to KD value for KRAS) [1] | HRAS/KRAS (ratio of KD value for HRAS to KD value for KRAS) [2] | IC50 [3] [nM] | NRAS/KRAS (ratio of KD value with respect to GDP-bound NRAS wild-type protein to KD value with respect to KRAS) [1] | HRAS/KRAS (ratio of KD value with respect to GDP-bound HRAS wild-type protein to KD value with respect to KRAS) [2] | IC50 [3, 4] [nM]
CCO[C@@H]1C[C@H]2C(=O)NC3(CC(C)(C)C3)C(=O)N(C)[C@@H](C3CCCC3)C(=O)N(C)[C@H](C(=O)N(C)C)CC(=O)N(C)[C@@H](CC(C)C)C(=O)N[C@@H]([C@@H](C)CC)C(=O)N(C3CC3)CC(=O)N(C)[C@H]3C/C=C\CCN(C3=O)[C@@H](Cc3ccc(C)cc3)C(=O)N(C)CC(=O)N[C@@H](CCc3cc(F)c(C(F)(F)F)c(F)c3)C(=O)N2C1 [PP2109] | A (a compound having 10 or more and less than 20 is denoted as A) | A (a compound having 10 or more and less than 20 is denoted as A) | 5.7 | – | – | –
CCCOC[C@H]1C(=O)N[C@@H]([C@@H](C)CC)C(=O)N(C)CC(=O)N(C)[C@H]2C/C=C\CCN(C2=O)[C@@H](Cc2ccc(C)cc2)C(=O)N(C)CC(=O)N[C@@H](CCc2cc(F)c(C(F)(F)F)c(F)c2)C(=O)N2C[C@H](CCC)C[C@H]2C(=O)NC2(CCC2)C(=O)N(C)[C@@H](C2CCCC2)C(=O)N(C)[C@H](C(=O)N(C)C)CC(=O)N1C [PP2232] | A (a compound having 10 or more and less than 20 is denoted as A) | A (a compound having 10 or more and less than 20 is denoted as A) | 18.7 | – | – | –
CCCOC[C@H]1C(=O)N[C@@H]([C@@H](C)CC)C(=O)N(C)CC(=O)N(C)[C@H]2C/C=C\CCN(C2=O)[C@@H](Cc2ccc(C)cc2)C(=O)N(C)CC(=O)N[C@@H](CCc2ccc(C(F)(F)F)c(Cl)c2)C(=O)N2C[C@H](CC)C[C@H]2C(=O)NC2(CC(C)(C)C2)C(=O)N(C)[C@@H](C2CCCC2)C(=O)N(C)[C@H](C(=O)N(C)C)CC(=O)N1C [PP2235] | A (a compound having 10 or more and less than 20 is denoted as A) | A (a compound having 10 or more and less than 20 is denoted as A) | 22.1 | – | – | –
CCC[C@H]1C(=O)N[C@@H]([C@@H](C)CC)C(=O)N(C)CC(=O)N(C)[C@H]2C/C=C\CCN(C2=O)[C@@H](CC2CCCCC2)C(=O)N(C)CC(=O)N[C@@H](CCc2ccc(C(F)(F)F)c(OC)c2)C(=O)N2C[C@H](OCC)C[C@H]2C(=O)N(C)C2(CCC2)C(=O)N(C)[C@@H](C(CC)CC)C(=O)N(C)[C@H](C(=O)N(C)C)CC(=O)N1C [PP2333] | A (a compound having 10 or more and less than 20 is denoted as A) | A (a compound having 10 or more and less than 20 is denoted as A) | 44.7 | – | – | –
CCO[C@@H]1C[C@H]2C(=O)NC3(CCC3)C(=O)N(C)[C@@H](C3CCCC3)C(=O)N(C)[C@H](C(=O)N(C)C)CC(=O)N(C)[C@@H](CC3CCCC3)C(=O)N[C@@H]([C@@H](C)CC)C(=O)N(C)CC(=O)N(C)[C@H]3C/C=C\CCN(C3=O)[C@@H](Cc3ccc(C)cc3)C(=O)N(C)CC(=O)N[C@@H](CCc3ccc(C(F)(F)F)c(C4CC4)c3)C(=O)N2C1 [PP2681] | – | – | 29.1 | A (a compound having 10 or more and less than 20 is denoted as A) | A (a compound having 10 or more and less than 20 is denoted as A) | –
CCO[C@@H]1C[C@H]2C(=O)NC3(CC(C)(C)C3)C(=O)N(C)[C@@H](C3CCCC3)C(=O)N(C)[C@H](C(=O)N(C)C)CC(=O)N(C)[C@@H](CC(C)C)C(=O)N[C@@H]([C@@H](C)CC)C(=O)N(C)CC(=O)N(C)[C@H]3C/C=C\CCN(C3=O)[C@@H](Cc3ccc(C)c(F)c3)C(=O)N(C)CC(=O)N[C@@H](CCc3ccc(C(F)(F)F)c(OC)c3)C(=O)N2C1 [PP2689] | – | – | – | A (a compound having 10 or more and less than 20 is denoted as A) | B (a compound having 3 or more and less than 10 is denoted as B) | 6.2
CCO[C@@H]1C[C@H]2C(=O)NC3(CC(C)(C)C3)C(=O)N(C)[C@@H](C3CCCC3)C(=O)N(C)[C@H](C(=O)N(C)C)CC(=O)N(C)[C@@H](CC(C)C)C(=O)N[C@@H]([C@@H](C)CC)C(=O)N(C)CC(=O)N(C)[C@H]3C/C=C\CCN(C3=O)[C@@H](Cc3ccc(C(C)(F)F)cc3)C(=O)N(C)CC(=O)N[C@@H](CCc3ccc(C(F)(F)F)c(OC)c3)C(=O)N2C1 [PP2690] | – | – | – | AA (a compound having 20 or more is denoted as AA) | A (a compound having 10 or more and less than 20 is denoted as A) | 3
CCC[C@H]1C(=O)N[C@@H]([C@@H](C)CC)C(=O)N(C)CC(=O)N(C)[C@H]2C/C=C\CCN(C2=O)[C@@H](Cc2ccc(C(F)(F)F)cc2)C(=O)N(C)CC(=O)N[C@@H](CCc2cc(F)c(C(F)(F)F)c(F)c2)C(=O)N2C[C@H](OCC)C[C@H]2C(=O)NC2(CC(C)(C)C2)C(=O)N(C)[C@@H](CC(C)(C)C)C(=O)N(C)C(C(=O)N(C)C)CC(=O)N1C (stereo partly drawn) [PP2730] | – | – | 5.8 | A (a compound having 10 or more and less than 20 is denoted as A) | A (a compound having 10 or more and less than 20 is denoted as A) | –
CCCC[C@H]1C(=O)N[C@@H]([C@@H](C)CC)C(=O)N(C)CC(=O)N(C)[C@H]2C/C=C\CCN(C2=O)[C@@H](Cc2ccc(C)cc2)C(=O)N(C)CC(=O)N[C@@H](CCc2cc(F)c(C(F)(F)F)c(F)c2)C(=O)N2C[C@H](OCC)C[C@H]2C(=O)NC2(CC(C)(C)C2)C(=O)N(C)[C@@H](C2CCCC2)C(=O)N(C)[C@H](C(=O)N(C)C)CC(=O)N1C [PP2800] | – | – | 7.9 | A (a compound having 10 or more and less than 20 is denoted as A) | A (a compound having 10 or more and less than 20 is denoted as A) | –
CCC(CC)[C@H]1C(=O)N(C)[C@H](C(=O)N(C)C)CC(=O)N(C)[C@@H](COC)C(=O)N[C@@H]([C@@H](C)CC)C(=O)N(C)CC(=O)N(C)[C@H]2C/C=C\CCN(C2=O)[C@@H](Cc2ccc(C)cc2)C(=O)N(C)CC(=O)N[C@@H](CCc2ccc(Cl)c(Cl)c2)C(=O)N2C[C@H](OC3CCC3)C[C@H]2C(=O)N(C)C2(CC(C)(C)C2)C(=O)N1C [PP2816] | – | – | 22.8 | AA (a compound having 20 or more is denoted as AA) | A (a compound having 10 or more and less than 20 is denoted as A) | –
CCC(CC)[C@H]1C(=O)N(C)[C@H](C(=O)N(C)C)CC(=O)N(C)[C@@H](COC)C(=O)N[C@@H]([C@@H](C)CC)C(=O)N(C)CC(=O)N(C)[C@H]2C/C=C\CCN(C2=O)[C@@H](Cc2ccc(C)cc2)C(=O)N(C)CC(=O)N[C@@H](CCc2ccc(Cl)c(Cl)c2)C(=O)N2CC3(CC3)C[C@H]2C(=O)N(C)C2(CC(C)(C)C2)C(=O)N1C [PP2820] | – | – | 62.4 | AA (a compound having 20 or more is denoted as AA) | A (a compound having 10 or more and less than 20 is denoted as A) | –
